The values that follow come from BindingDB's records for doi:10.1021/jm101104z (University of Ljubljana, 2011).

Test [1] has as its target 17beta-hydroxysteroid dehydrogenase type 1 (Homo sapiens). Nature of the test: Displacement of [3H]estrone human recombinant 17beta-HSD1 expressed in Escherichia coli BL21 (DE3)-RIL by scintillation counting in presence of bacterial homogenate.
The target is the same in test [2]. Nature of the test: Displacement of [3H]estrone human recombinant 17beta-HSD1 expressed in Escherichia coli BL21 (DE3)-RIL by competitive inhibition assay in presence of bacterial homogenate.
Test [3] shares this target. As to the kind of experiment: Inhibition of 17beta-HSD1.

In the case of `CC(=O)c1cc2ccc(OS(=O)(=O)C(F)(F)F)cc2oc1=O` [3-Acetyl-2-oxo-2H-chromen-7-yl trifluoromethanesulfonate], the IC50 in test [1] came to 360 nM. Besides, the Ki in test [2] turned out to be 173 nM.
For `CC(=O)c1cc2ccc(-c3ccc(O)cc3)cc2oc1=O` [3-Acetyl-7-(4-hydroxyphenyl)-2H-chromen-2-one], in that order: 270 nM and 143 nM.
Taken in the same sequence, the figures for `COc1ccc(-c2ccc3cc(C(C)=O)c(=O)oc3c2)cc1` [3-Acetyl-7-(4-methoxyphenyl)-2H-chromen-2-one] were 1140 nM and 585 nM.
For `CC(=O)c1cc2ccc(-c3ccc(C)cc3)cc2oc1=O` [3-Acetyl-7-para-tolyl-2H-chromen-2-one], in that order: 1240 nM and 585 nM.
Molecule `COc1cc(-c2nc3sc4c(O)cccc4c3c(=O)n2Cc2ccccc2)c(Br)c(OC)c1OC` [3-Benzyl-2-(2-bromo-3,4,5-trimethoxy-phenyl)-8-hydroxy-3H-benzo[4,5]thieno[2,3-d]pyrimidin-4-one] yielded an IC50 in test [3] of 5 nM.
